Measured values published in US20230390296A1, “NOVEL TREATMENT AND PREVENTION OF SARCOPENIA-RELATED DISEASES” (KEIO UNIVERSITY, priority 2020, published 2023).

Columns and labels:
myoblast C2C12 = experiment: Gene analysis (RNA-seq) in C-82 treated myoblasts; assay type: cell-based, mouse; conditions: C-82 treated C2C12
Procedure: This Example investigated what gene modulation C-82 is involved with in myoblast C2C12 to identify a gene that is useful in the diagnosis or treatment of sarcopenia.
Gene analysis (RNA-seq) in C-82 treated myoblasts was performed by the same method as Example 2.

old mice = experiment: Muscle mass by MRI (volume of right gastrocnemius muscle/soleus muscle), with/without treadmill exercise; assay type: in vivo, mouse
Procedure: OK-1 was then intraperitoneally administered to each mouse twice a week at 20 mg/kg/day over 8 weeks (i.e., until reaching 23 week old and 88 week old, respectively). Treadmill exercise was conducted three times a week at 8 m/minute for 5 minutes→15 m/minute for 35 minutes while administering OK-1 twice a week at 20 mg/kg/day over 5 weeks (i.e., until reaching 28 week old and 93 week old, respectively). The muscle mass was then measured with the following equipment and conditions through MRI (FIG. 1B). MRI (MRminiSA1545, Japan REDOX) (magnetic flux density: 1.5 tesla (permanent magnet) (temporal resolution: 100 ns) was used to capture images of the lower limbs of the mice. The recovered data was converted into dicom data, and the volume of right gastrocnemius muscle/soleus muscle was quantified with Osirix Lite.

[1] = Blood (plasma) test of six markers with biochemical automatic analyzer; assay type: in vivo, mouse
Procedure: 75-week old mice (C57B16/J) were purchased from Oriental Yeast. Various concentrations (0 mg/kg (control), 0.2 mg/kg, 2 mg/kg, 20 mg/kg, and 40 mg/kg) of OK-1 were administered twice a week for 12 weeks until reaching 87-week old. Blood (plasma) was then recovered, and the concentrations of the following six markers were measured using a biochemical automatic analyzer (JCA-BM6050, JEOL). • LDH: lactate dehydrogenase can predict a liver, myocardial, or skeletal muscle disorder, etc. A decrease in LDH is expected to have a therapeutic effect on acute hepatitis, chronic hepatitis, cirrhosis, liver cancer, and other liver diseases, acute myocardial infarction, congested heart failure, and other heart diseases, polymyositis, muscular dystrophy, and other muscular diseases, pernicious anemia, leukemia, hemolytic anemia, etc. • ALT: This is a biomarker that can predict a liver tissue disorder. A decrease in ALT is expected to have a therapeutic effect on acute hepatitis, chronic hepatitis, alcoholic hepatitis, cirrhosis, liver cancer, fatty liver, acute myocardial infarction and other heart diseases, progressive muscular dystrophy and other muscular diseases, etc. • TG: Neutral fat is used for predicting diabetes, obesity, or arteriosclerotic disease. A decrease in TG is expected to have a therapeutic effect on hyperchylomicronemia, LPL deficiency, diabetes, obesity, arteriosclerosis, gout, hypothyroidism, Cushing's syndrome, nephrotic syndrome, obstructive jaundice, acute/chronic pancreatitis, etc. • HDL-C: This is used as a marker for arteriosclerosis, diabetes, cirrhosis, etc., of HDL cholesterol. A decrease in HDL-C is expected to have a therapeutic effect on primary biliary cirrhosis and hyperthyroidism. • UN: Urea nitrogen is a biomarker that can predict dysfunction of kidney or urinary system. An increase in UN is expected to have a therapeutic effect on toxic hepatitis, fulminant hepatitis, end-stage of cirrhosis, diabetes insipidus, acromegaly, etc. • UA: Uric acid is a biomarker for kidney or liver function. An increase in UA is expected to have a therapeutic effect on cirrhosis, xanthinuria, Fanconi syndrome, Wilson's syndrome, glomerulonephritis, etc.

[2] = system: ALS mouse models (e.g., SOD1G93A mice); experiment: ALS mouse model; assay type: in vivo; conditions: administered versus non-administered group
Procedure: ALS mouse models (e.g., SOD1G93A mice) were divided into two groups. OK was administered to one of the groups, and OK was not administered to the other group.

[3] = 75-week old mice, 0.2, 2, 20, 40 mg/kg twice a week for 12 weeks
[4] = at a specific OK-1 concentration, twice a week for 12 weeks

| Structure (SMILES) | gene group associated with C-82 (upstream transcription factor analysis) (myoblast C2C12) | genes decreased significantly in myoblasts (myoblast C2C12) [genes] | genes increased significantly in myoblasts (myoblast C2C12) [genes] | muscle mass (MRI), combined use of administration with exercise (old mice; 20 mg/kg/day twice a week plus treadmill exercise three times a week over 5 weeks) | muscle mass (MRI) (old mice; intraperitoneal 20 mg/kg/day twice a week over 8 weeks, then 5 further weeks) | HDL-C concentration ([1]; 0.2 to 40 mg/kg twice a week for 12 weeks) | LDH concentration [1, 3] | UA concentration [1, 3] | ALT concentration [1, 4] | TG concentration [1, 4] | UN concentration [1, 4] | ALS [2] |
| --- | --- | --- | --- | --- | --- | --- | --- | --- | --- | --- | --- | --- |
| C[C@H]1[C@H]2N(C(=O)CN(C)N2C(=O)NCc2ccccc2)[C@@H](Cc2ccc(O)cc2)C(=O)N1Cc1cccc2cccnc12 [C-82, (6S,9S)—N-benzyl-6-(4-hydroxybenzyl)-2,9-dimethyl-4,7-dioxo-8-(quinolin-8-ylmethyl)hexahydro-2H-pyrazino[2,1-c][1,2,4]triazine-1(6H)-carboxamide] | Nfkb1, Srebf2, Sp1, Trp53, Xbp1, Myod1, Srebf1, Jun, Stat3, Sp3, Myf6, Nr3c1, Foxo3, Nfe212, Myf5, Ahr, Ep300, Myog, and Usf2 | 611 | 581 |  |  |  |  |  |  |  |  |  |
| C[C@H]1[C@H]2N(C(=O)CN(C)N2C(=O)NCc2ccccc2)[C@@H](Cc2ccc(OP(=O)(O)O)cc2)C(=O)N1Cc1cccc2cccnc12 [OK-1] |  |  |  | muscle mass significantly recovers synergistically | increases muscle mass in old mice | A significant change was not observed | reduces the LDH concentration | increases the UA concentration at all concentrations | a decrease in the ALT concentration | a decrease in TG concentration | an increase in UN concentration | ALS is improved |
